The target in one data set is T1, wild type COX2 (Homo sapiens, UniProt P35354).
T1 sequence (P35354 18-604): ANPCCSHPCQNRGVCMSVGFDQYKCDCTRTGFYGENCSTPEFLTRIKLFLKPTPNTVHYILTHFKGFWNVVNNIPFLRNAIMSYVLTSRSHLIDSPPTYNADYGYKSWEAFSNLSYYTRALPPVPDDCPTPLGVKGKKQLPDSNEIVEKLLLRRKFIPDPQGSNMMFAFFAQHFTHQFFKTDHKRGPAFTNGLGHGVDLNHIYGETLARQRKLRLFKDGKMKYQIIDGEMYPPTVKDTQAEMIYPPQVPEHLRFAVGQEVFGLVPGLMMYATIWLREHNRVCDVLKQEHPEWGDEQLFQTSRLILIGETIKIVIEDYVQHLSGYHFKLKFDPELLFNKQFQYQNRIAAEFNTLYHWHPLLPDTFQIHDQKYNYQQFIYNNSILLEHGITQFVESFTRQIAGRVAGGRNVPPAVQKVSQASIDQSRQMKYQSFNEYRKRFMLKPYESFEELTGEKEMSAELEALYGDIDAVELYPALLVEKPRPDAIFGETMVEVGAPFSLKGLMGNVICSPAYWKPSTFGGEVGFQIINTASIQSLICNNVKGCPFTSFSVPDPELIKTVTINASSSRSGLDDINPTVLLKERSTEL
Nature of the data set: Filter binding assay / enzymatic analysis of COX2, wild type. To be noted: [14C]N-acetyl sphingosine binding to wild-type COX2, saturation plot; FIG. 3. The method, then: The binding activity of wild type COX2 or mutant COX2 (N181A, T564A, S565A, S567A) and N-acetyl sphingosine (N-AS) was analyzed by filter binding assay (Nat Commun. 2018 Apr. 16; 9(1):1479).
The binding rate (Vbinding) of [^14C]N-acetyl sphingosine (American Radiolabeled Chemicals, ARC1024) to wild-type COX2 and mutant COX2 (N181A, T564A, S565A, S567A) was expressed as the concentration of N-acetyl sphingosine. […] By using the calculated Kcat and KM, Kcat/KM (catalytic efficiency), which has been widely used as a measure of enzyme performance, was calculated from wild-type COX2 and mutant-type COX2 (N181A, T564A, S565A, S567A).

A short description of data set [1]: Brain distribution after oral or intravenous administration to normal mice. To be noted: for Kp: mouse, brain, FIG. 4C. Format: in vivo, mouse. Here is the method: FIGS. 4A to 4C illustrate a result of showing a concentration remaining in the brain for each time period after oral (p.o. 10 mg/kg) or intravenous administration (i.v. 1 mg/kg) of N-acetyl sphingosine to normal mice (FIG. 4A), a result of showing a concentration remaining in the brain after 24 hours (FIG. 4B), and a pharmacokinetic test analysis result for a brain distribution (FIG. 4C) (n=3/group).
In order to apply the compounds of the present invention to the diagnosis of degenerative brain diseases, it is important to distribute the compounds well to the brain after administration. To confirm this, the N-AS was administered orally (10 mg/kg) or through tail vein (1 mg/kg), and then the brain was extracted by time to measure the concentration of N-AS, and after 24 hours, the brain was extracted to measure the concentration of the remaining N-AS.

Data set [2] has as its target T2, COX2 protein in microglia (Mus musculus, UniProt Q05769).
T2 construct: from tissue; host or cells: microglia isolated from the cerebrum of wild-type and APP/PS1 mice (C57BL/6 background)
T2 sequence (Q05769 18-604): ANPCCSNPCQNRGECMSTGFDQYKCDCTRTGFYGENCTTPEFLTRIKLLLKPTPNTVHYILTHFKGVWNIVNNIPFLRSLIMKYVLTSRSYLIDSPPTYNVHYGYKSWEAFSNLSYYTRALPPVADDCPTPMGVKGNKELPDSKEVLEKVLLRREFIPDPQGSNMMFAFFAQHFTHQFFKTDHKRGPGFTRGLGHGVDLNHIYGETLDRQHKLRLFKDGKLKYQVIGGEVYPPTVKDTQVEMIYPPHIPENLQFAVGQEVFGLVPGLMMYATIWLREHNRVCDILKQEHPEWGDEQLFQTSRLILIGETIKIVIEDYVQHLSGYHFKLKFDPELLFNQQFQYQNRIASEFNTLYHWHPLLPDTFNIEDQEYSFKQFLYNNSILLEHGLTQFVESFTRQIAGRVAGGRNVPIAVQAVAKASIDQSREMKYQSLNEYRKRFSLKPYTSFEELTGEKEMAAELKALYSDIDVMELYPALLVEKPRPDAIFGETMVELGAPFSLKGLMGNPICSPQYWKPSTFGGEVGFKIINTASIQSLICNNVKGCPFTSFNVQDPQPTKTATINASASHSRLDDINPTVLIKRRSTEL
Briefly: [14C] bound to COX2 immunoprecipitated from microglia after oral [14C]N-acetyl sphingosine. Format: in vivo. As to conditions: 5-month-old APP/PS1 Alzheimer's animal model compared to control (WT); 10 μCi oral; after 1 hour; FIG. 6. An excerpt:
Mouse experiments have been approved by the Kyungpook National University Institutional Animal Care and Use Committee (IACUC). A transgenic mouse line overexpressing APPswe (hAPP695swe) or PS1 (presenilin-1M146V) based on C57BL/6 mice (Charles River, UK) was used [Hereinafter, “APP mouse”: refers to a mouse overexpressing APPswe, “PS1 mouse”: refers to a mouse overexpressing presenilin-1M146V; GlaxoSmithKline]
After oral administration of 10 μCi of [^14C]N-acetyl sphingosine (American Radiolabeled Chemicals, ARC1024) to 5-month-old wild-type and APP/PS1 mice, microglia were isolated from the cerebra of the mice after 1 hour.
(§1) The COX2 protein of isolated microglia and neuroblastoma SH-SY5Y were isolated by immunoprecipitation, and then liquid scintillation counting was performed on [^14C].
After 1 hour, the COX2 in microglia was isolated from the control and the Alzheimer's animal model by immunoprecipitation, and the amount of COX2 labeled with [^14C] was confirmed.

The target in data set [3] is T3, COX2 protein in neuroblastoma SH-SY5Y (Homo sapiens, UniProt P35354).
T3 construct: endogenous in cells; host or cells: SH-SY5Y neuroblastoma cells
T3 sequence (P35354 18-604): T1 sequence (P35354 18-604)
Briefly: [14C] bound to COX2 immunoprecipitated from neuroblastoma SH-SY5Y cells treated with [14C]N-acetyl sphingosine. Format: cell-based. As to conditions: neuroblastoma SH-SY5Y compared to control; 2 μCi; after 1 hour; FIG. 8. Here is the method: In addition, neuroblastoma SH-SY5Y was treated with 2 μCi of [^14C]N-acetyl sphingosine (American Radiolabeled Chemicals, ARC1024) for 1 hour, and then cells were collected.
as §1
In other words, [^14C]N-acetyl sphingosine ([^14C]N-AS), in which carbon of N-AS strongly binding to COX2 was substituted with an isotope, was treated to the cancer cells (2 μCi). After 1 hour, the COX2 was isolated from the control and the cancer cells, neuroblastoma SH-SY5Y by immunoprecipitation, and the amount of COX2 labeled with [^14C] was confirmed.

The record followed here is patent US12332244B2, “Composition for diagnosing diseases associated with COX2 overexpression and screening method therefor” (KYUNGPOOK NATIONAL UNIVERSITY INDUSTRY-ACADEMIC COOPERATION …, priority 2018, dated 2025).

`CCCCCCCCCCCCC/C=C/[C@@H](O)[C@H](CO)NC(C)=O` [N-AS, N-acetyl sphingosine] yielded a Kcat at wild type COX2 of 0.008 s⁻¹. The Kp was found to be 2.16 in data set [1] (intravenous, tail vein administration 1 mg/kg) and 3.18 in data set [1] (oral administration 10 mg/kg). Besides, in data set [1] (oral 10 mg/kg or tail vein 1 mg/kg, by time and after 24 hours, FIGS. 4A and 4B), the “concentration of N-AS in the brain” value is “high”.
Take `CCCCCCCCCCCCC/C=C/[C@@H](O)[C@H](CO)N[14C](C)=O` [[^14C]N-AS, [^14C]N-acetyl sphingosine]: in data set [2], the “amount of [14C]-labeled COX2 in microglia” value was “increased”. The “amount of [14C]-labeled COX2 in cancer cells” value in data set [3] is listed as “increased”.
